Test results taken from US11472805B2, “Tricyclic compounds and their use as phosphodiesterase inhibitors” (Pfizer Inc., priority 2015, dated 2022).

Experiments:
Assay type in all cases: biochemical
[1] = molecular target: Human PDE4C1 (Homo sapiens (Human), UniProt Q08493); test: PDE4C1 Scintillation Proximity Assay (SPA), inhibition of enzyme activity; settings: Table 9, geometric mean of 2-9 determinations unless otherwise indicated, read-out: Human PDE4C FL
Experimental: (§1) The PDE4A, PDE4B, PDE4C and PDE4D binding affinity for the compounds of the present invention was determined utilizing the following biological assay(s):
(§2) The recombinant Bacmid was isolated and used to transfect insect cells to generate a viral stock. To generate cell paste for purification, insect cells were infected with the virus stock and cells were harvested 72 hours after infection. Insect cell paste was lysed and after centrifugation, the supernatant was batch bound to Ni-NTA agarose (GE Healthcare) and eluted with 250 mM imidazole. This eluate was diluted with FLAG buffer (50 mM Tris HCL pH 7.5, 100 mM NaCl, 5% Glycerol, 1 mM TCEP with protease inhibitors) and batch bound to ant-FLAG M2 agarose (Sigma) overnight at 4° C. The agarose was packed into a column, washed with buffer and eluted with buffer containing elute using 250 ug/ml Flag-peptide. Fractions were analyzed using SDS-PAGE Coomassie blue staining and pooled based on purity. Pooled fractions were chromatographed on a S200 120 ml column (GE Healthcare) in 50 mM Tris HCL pH 7.5, 150 mM NaCl, 10% Glycerol, 2 mM TCEP with protease inhibitors. PDE4C1 fractions were analyzed by SDS-PAGE Coomassie blue staining, pooled based on purity, dialyzed against 50 mM Tris HCL pH 7.5, 100 mM NaCl, 20% Glycerol, 2 mM TCEP, frozen and stored at −80° C.
(§3) The PDE4A3, PDE4B1, PDE4C1 and PDE4D3 assays use the Scintillation Proximity Assay (SPA) technology to measure the inhibition of human recombinant PDE4A1, PDE4B3, PDE4C1, and PDE4D3 enzyme activity by compounds in vitro. The PDE4A1, PDE4B3, PDE4C1, and PDE4D3 assays are run in parallel using identical parameters, except for the concentration of enzyme ([…]). The assays are performed in a 384-well format with 50 uL assay buffer (50 mM TRIS pH7.5; 1.3 mM MgCl2; 0.01% Brij) containing enough PDE4A3, PDE4B1, PDE4C1, and PDE4D to convert ˜20% of substrate (1 μM cAMP consisting of 20 nM 3H-cAMP+[…] cold cAMP) and a range of inhibitors. Reactions are incubated for 30 min at 25° C. The addition of 20 uL of 8 mg/ml yitrium silicate SPA beads (Perkin Elmer) stops the reaction. The plates are sealed (TopSeal, Perkin Elmer) and the beads are allowed to settle for 8 hrs, after which they are read on the Trilux Microbeta overnight.

[2] = molecular target: Human PDE4B1 (Homo sapiens (Human), UniProt Q07343, S133E/S654A/S659A/S661A); test: PDE4B1 Scintillation Proximity Assay (SPA), inhibition of enzyme activity; settings: Table 9, geometric mean of 2-9 determinations unless otherwise indicated, read-out: Human PDE4B FL
Experimental: as §1
The recombinant Bacmid was isolated and used to transfect insect cells to generate a viral stock. To generate cell paste for purification, insect cells were infected with the virus stock and cells were harvested 72 hours after infection as described in Seeger, T. F. et al., Brain Research 985 (2003) 113-126. Insect cell paste was lysed and after centrifugation, the supernatant was chromatographed on Ni-NTA agarose (Qiagen) as described in Seeger, T. F. et al., Brain Research 985 (2003) 113-126. Ni-NTA agarose eluting fractions containing PDE4 were pooled, diluted with Q buffer A (20 mM Tris HCl pH 8, 5% glycerol, 1 mM TCEP) to reduce NaCl to ˜100 mM and loaded on a Source 15Q (GE Healthcare) column. After washing with Q buffer A/10% buffer B to baseline, PDE4D was eluted with a gradient from 10% to 60% of Buffer B (20 mM Tris HCl pH 8, 1 M NaCl, 5% glycerol, 1 mM TCEP). PDE4D fractions were analyzed by SDS-PAGE Coomassie blue staining, pooled based on purity, frozen and stored at −80° C.
as §3

[3] = molecular target: human PDE4D3 (Homo sapiens (Human), UniProt Q08499); test: PDE4D3 Scintillation Proximity Assay (SPA), inhibition of enzyme activity; settings: Table 9, geometric mean of 2-9 determinations unless otherwise indicated, read-out: Human PDE4D FL
Experimental: as §1
A portion of the human PDE4D3 coding sequence (amino acids 50 to 672 from the sequence with accession number Q08499-2) was cloned into the baculovirus expression vector pFastBac (Invitrogen) engineered to include a C-terminal His6 affinity tag to aid in purification as described in Seeger, T. F. et al., Brain Research 985 (2003) 113-126. The recombinant Bacmid was isolated and used to transfect insect cells to generate a viral stock. To generate cell paste for purification, insect cells were infected and cells were harvested 72 hours after infection. Insect cell paste was lysed and after centrifugation, the supernatant was chromatographed on Ni-NTA agarose (Qiagen) as described in Seeger, T. F. et al., Brain Research 985 (2003) 113-126. Ni-NTA agarose eluting fractions containing PDE4 were pooled, diluted with Q Buffer A (50 mM Tris HCl pH 8, 4% glycerol, 100 mM NaCl, 1 mM TCEP, Protease inhibitors EDTA-free (Roche)) to reduce NaCl to ˜200 mM, and loaded on a Q Sepharose (GE Healthcare) column. After washing with Q buffer A to baseline, PDE4D was eluted with a gradient from 10% to 60% of Buffer B (50 mM Tris HCl pH 8, 1 M NaCl, 4% glycerol, 1 mM TCEP). PDE4D fractions were analyzed by SDS-PAGE Coomassie blue staining, pooled based on purity, frozen and stored at −80° C.
as §3

[4] = molecular target: Human PDE4A3 (Homo sapiens (Human), UniProt P27815); test: PDE4A3 Scintillation Proximity Assay (SPA), inhibition of enzyme activity; settings: Table 9, geometric mean of 2-9 determinations unless otherwise indicated, read-out: Human PDE4A FL
Experimental: as §1
as §2, with “PDE4A3” for “PDE4C1”
as §3

Human PDE4A3, sequence (P27815 other isoform, or with tags, fused parts or gaps): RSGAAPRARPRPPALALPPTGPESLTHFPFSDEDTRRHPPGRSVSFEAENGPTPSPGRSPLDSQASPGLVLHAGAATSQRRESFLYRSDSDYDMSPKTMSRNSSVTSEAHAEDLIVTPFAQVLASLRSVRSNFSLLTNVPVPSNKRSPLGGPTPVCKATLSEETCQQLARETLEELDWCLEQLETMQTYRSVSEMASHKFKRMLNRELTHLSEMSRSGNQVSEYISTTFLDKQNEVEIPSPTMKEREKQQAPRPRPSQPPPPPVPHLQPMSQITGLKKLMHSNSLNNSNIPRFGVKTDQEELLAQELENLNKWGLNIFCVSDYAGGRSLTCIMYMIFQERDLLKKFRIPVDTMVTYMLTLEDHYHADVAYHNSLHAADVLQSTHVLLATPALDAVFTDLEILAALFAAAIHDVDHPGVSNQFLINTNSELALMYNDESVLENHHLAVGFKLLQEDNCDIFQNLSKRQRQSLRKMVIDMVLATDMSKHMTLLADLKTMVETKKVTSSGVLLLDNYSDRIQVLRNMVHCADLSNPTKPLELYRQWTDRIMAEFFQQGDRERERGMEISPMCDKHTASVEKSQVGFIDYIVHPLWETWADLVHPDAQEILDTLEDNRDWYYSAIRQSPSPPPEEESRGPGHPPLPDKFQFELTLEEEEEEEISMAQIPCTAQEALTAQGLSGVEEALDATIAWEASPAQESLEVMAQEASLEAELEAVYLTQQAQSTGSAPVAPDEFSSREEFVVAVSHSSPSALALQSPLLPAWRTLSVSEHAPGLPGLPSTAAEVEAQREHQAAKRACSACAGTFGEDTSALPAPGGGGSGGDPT
Human PDE4B1, sequence (Q07343 122-736 S133E/S654A/S659A/S661A): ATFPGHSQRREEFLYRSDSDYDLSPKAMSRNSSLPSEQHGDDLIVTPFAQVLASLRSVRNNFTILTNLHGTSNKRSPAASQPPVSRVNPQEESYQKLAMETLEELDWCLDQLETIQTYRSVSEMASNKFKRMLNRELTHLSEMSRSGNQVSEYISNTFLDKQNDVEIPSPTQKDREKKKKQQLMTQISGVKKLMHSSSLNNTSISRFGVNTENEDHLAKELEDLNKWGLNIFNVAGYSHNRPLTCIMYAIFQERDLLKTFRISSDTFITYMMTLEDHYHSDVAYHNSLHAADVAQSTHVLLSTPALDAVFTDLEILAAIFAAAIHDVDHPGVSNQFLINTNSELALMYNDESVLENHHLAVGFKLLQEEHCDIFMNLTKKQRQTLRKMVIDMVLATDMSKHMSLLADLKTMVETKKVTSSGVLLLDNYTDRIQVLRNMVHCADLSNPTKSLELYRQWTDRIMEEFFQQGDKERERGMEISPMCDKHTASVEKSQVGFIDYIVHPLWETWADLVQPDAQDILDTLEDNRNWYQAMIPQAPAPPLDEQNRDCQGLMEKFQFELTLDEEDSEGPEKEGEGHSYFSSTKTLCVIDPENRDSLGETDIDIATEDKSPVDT
Human PDE4C1, sequence (Q08493 2-712): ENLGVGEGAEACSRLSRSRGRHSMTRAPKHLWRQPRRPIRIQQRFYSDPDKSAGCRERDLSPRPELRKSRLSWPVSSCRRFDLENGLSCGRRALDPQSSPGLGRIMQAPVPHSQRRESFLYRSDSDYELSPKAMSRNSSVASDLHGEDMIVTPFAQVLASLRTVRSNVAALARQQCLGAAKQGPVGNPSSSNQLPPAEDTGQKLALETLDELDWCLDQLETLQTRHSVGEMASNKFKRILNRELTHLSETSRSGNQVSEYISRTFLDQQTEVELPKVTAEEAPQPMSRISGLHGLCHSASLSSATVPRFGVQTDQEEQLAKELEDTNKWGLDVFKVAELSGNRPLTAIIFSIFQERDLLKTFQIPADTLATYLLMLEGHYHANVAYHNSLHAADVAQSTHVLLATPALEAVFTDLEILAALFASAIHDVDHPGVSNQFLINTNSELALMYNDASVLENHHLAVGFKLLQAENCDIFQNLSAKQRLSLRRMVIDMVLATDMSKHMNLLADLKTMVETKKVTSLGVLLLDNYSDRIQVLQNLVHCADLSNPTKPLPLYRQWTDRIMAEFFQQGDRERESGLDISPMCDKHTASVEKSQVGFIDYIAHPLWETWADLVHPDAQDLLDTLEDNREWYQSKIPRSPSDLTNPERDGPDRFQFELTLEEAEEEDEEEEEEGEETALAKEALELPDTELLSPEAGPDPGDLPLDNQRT
human PDE4D3, sequence (Q08499 186-808): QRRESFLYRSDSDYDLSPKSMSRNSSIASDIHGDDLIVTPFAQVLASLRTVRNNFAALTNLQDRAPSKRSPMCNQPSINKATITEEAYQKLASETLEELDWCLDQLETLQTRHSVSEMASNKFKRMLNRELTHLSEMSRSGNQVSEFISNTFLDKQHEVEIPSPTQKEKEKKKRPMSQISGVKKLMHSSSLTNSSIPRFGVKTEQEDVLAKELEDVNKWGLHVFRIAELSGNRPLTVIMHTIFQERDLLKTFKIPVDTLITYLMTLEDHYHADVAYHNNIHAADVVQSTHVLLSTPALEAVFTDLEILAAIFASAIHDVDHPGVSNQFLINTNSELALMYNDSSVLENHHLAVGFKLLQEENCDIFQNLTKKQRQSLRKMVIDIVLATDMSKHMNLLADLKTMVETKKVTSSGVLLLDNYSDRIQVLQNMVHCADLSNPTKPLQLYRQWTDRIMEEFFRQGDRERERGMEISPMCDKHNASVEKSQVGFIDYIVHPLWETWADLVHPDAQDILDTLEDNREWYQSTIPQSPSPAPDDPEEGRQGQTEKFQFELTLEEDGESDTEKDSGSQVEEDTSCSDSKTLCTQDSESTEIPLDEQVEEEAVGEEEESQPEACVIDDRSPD

Compound | IC50 [1] | IC50 [2] | IC50 [3] | IC50 [4]
O=C1c2c(-c3ccccc3)c3ncccc3n2CCN1C1CC1 [Example 42, 8-Cyclopropyl-10-phenyl-7,8-dihydropyrido[2′,3′:4,5]pyrrolo[1,2-a]pyrazin-9(6H)-one] | 54.1 nM | 23.3 nM | 1050 nM | 12.2 nM
O=C1c2c(-c3cncc(Cl)c3)c3ncccc3n2CCN1C1CC1 [Example 51, 10-(5-Chloropyridin-3-yl)-8-cyclopropyl-7,8-dihydropyrido[2′,3′:4,5]pyrrolo[1,2-a]pyrazin-9(6H)-one] | 694 nM | 26.1 nM | 2010 nM | 86.7 nM
Cc1cc(N2CCn3c(c(-c4ccc(Cl)cc4)c4ncccc43)C2=O)no1 [Example 57, 10-(4-Chlorophenyl)-8-(5-methyl-1,2-oxazol-3-yl)-7,8-dihydropyrido[2′,3′:4,5]pyrrolo[1,2-a]pyrazin-9(6H)-one] | 10.8 nM | 3.81 nM | 38.3 nM | 3.49 nM
O=C1c2c(-c3cccc(F)c3)c3ncccc3n2CCN1C1CC1 [Example 41, 8-Cyclopropyl-10-(3-fluorophenyl)-7,8-dihydropyrido[2′,3′:4,5]pyrrolo[1,2-a]pyrazin-9(6H)-one] | 9.22 nM | 2.38 nM | 130 nM | 1.26 nM
O=C1c2c(-c3ccc(Cl)cc3)c3c(n2CCN1C1CC1)CCCO3 [Example 75, 10-(4-Chlorophenyl)-8-cyclopropyl-3,4,7,8-tetrahydro-2H-pyrano[2′,3′:4,5]pyrrolo[1,2-a]pyrazin-9(6H)-one] | 11.7 nM | 3.99 nM | 286 nM | 1.26 nM
Cc1ccc(-c2c3n(c4cccnc24)CCN(C2CC2)C3=O)c(C)c1 [Example 65, 8-Cyclopropyl-10-(2,4-dimethylphenyl)-7,8-dihydropyrido[2′,3′:4,5]pyrrolo[1,2-a]pyrazin-9(6H)-one] | 13.8 nM | 6.7 nM | 481 nM | 5.65 nM
COc1ccc(-c2c3n(c4cccnc24)CCN(C2CC2)C3=O)cc1 [Example 44, 8-Cyclopropyl-10-(4-methoxyphenyl)-7,8-dihydropyrido[2′,3′:4,5]pyrrolo[1,2-a]pyrazin-9(6H)-one] | 86 nM | 6.37 nM | 212 nM | 33 nM

The next lines start with the values.

IC50 [1] | IC50 [2] | IC50 [3] | IC50 [4] | Compound
87.7 nM | 9.73 nM | 290 nM | 12.6 nM | COc1c(F)cc(-c2c3n(c4nccnc24)CCN(C2CC2)C3=O)cc1F [Example 59, 8-Cyclopropyl-10-(3,5-difluoro-4-methoxyphenyl)-7,8-dihydropyrrolo[1,2-a:4,5-b′]dipyrazin-9(6H)-one]
23.5 nM | 19.2 nM | 3090 nM | 12 nM | O=C1c2c(-c3ccc(Cl)cc3)c3ccccc3n2CCN1C1CC1 [Example 12, 10-(4-Chlorophenyl)-2-cyclopropyl-3,4-dihydropyrazino[1,2-a]indol-1(2H)-one]
127 nM | 298 nM | 8190 nM | 129 nM | O=C1c2c(-c3ccc(Cl)cc3)c3cccnc3n2CCN1C1CC1 [Example 9, 5-(4-Chlorophenyl)-7-cyclopropyl-8,9-dihydropyrido[3′,2′: 4,5]pyrrolo[1,2-a]pyrazin-6(7H)-one]
15.1 nM | 4.36 nM | 90.4 nM | 3.53 nM | N#Cc1ccc(-c2c3n(c4scnc24)CCN(C2CC2)C3=O)cc1F [Example 72, 4-(7-Cyclopropyl-8-oxo-5,6,7,8-tetrahydro[1,3]thiazolo[4′,5′:4,5]pyrrolo[1,2-a]pyrazin-9-yl)-2-fluorobenzonitrile]
11.2 nM | 6.09 nM | 497 nM | 4.93 nM | Cc1ccc(-c2c3n(c4cccnc24)CCN(C2CC2)C3=O)cc1C [Example 33, 8-Cyclopropyl-10-(3,4-dimethylphenyl)-7,8-dihydropyrido[2′,3′:4,5]pyrrolo[1,2-a]pyrazin-9(6H)-one]
9.39 nM | 5.79 nM | 395 nM | 2.71 nM | Cc1cc(F)ccc1-c1c2n(c3cccnc13)CCN(C1CC1)C2=O [Example 49, 8-Cyclopropyl-10-(4-fluoro-2-methylphenyl)-7,8-dihydropyrido[2′,3′:4,5]pyrrolo[1,2-a]pyrazin-9(6H)-one]
28.2 nM | 12.2 nM | 768 nM | 15.5 nM | C[C@@H]1Cn2c(c(-c3ccc(Cl)cc3)c3ncccc32)C(=O)N1C1CC1 [Example 10, (7R)-10-(4-Chlorophenyl)-8-cyclopropyl-7-methyl-7,8-dihydropyrido[2′,3′:4,5]pyrrolo[1,2-a]pyrazin-9(6H)-one]
122 nM | 25.2 nM | 700 nM | 7.66 nM | Cc1cc(Cl)ccc1-c1c2n(c3cccnc13)CCN(c1ncccn1)C2=O [Example 73, 10-(4-Chloro-2-methylphenyl)-8-(pyrimidin-2-yl)-7,8-dihydropyrido[2′,3′:4,5]pyrrolo[1,2-a]pyrazin-9(6H)-one]
2.88 nM | 1.14 nM | 142 nM | 2 nM | O=C1c2c(-c3ccc(Cl)cc3F)c3ncccc3n2CCN1C1CC1 [Example 47, 10-(4-Chloro-2-fluorophenyl)-8-cyclopropyl-7,8-dihydropyrido[2′,3′:4,5]pyrrolo[1,2-a]pyrazin-9(6H)-one]
